Laboratory results: patent US20220125793A1, “CANCER THERAPY USING 3,5-DISUBSTITUTED BENZENE ALKYNYL COMPOUND AND IMMUNE CHECKPOINT INHIBITOR” (TAIHO PHARMACEUTICAL CO., LTD., priority 2019, published 2022)

B1: vofatamab: an anti-FGFR3 antibody (antibody, chains of the INN, looked up, V domains shown)
VH: EVQLVESGGGLVQPGGSLRLSCAASGFTFTSTGISWVRQAPGKGLEWVGRIYPTSGSTNYADSVKGRFTISADTSKNTAYLQMNSLRAEDTAVYYCARTYGIYDLYVDYTEYVMDYWGQGTLVTVSS
VL: DIQMTQSPSSLSASVGDRVTITCRASQDVDTSLAWYKQKPGKAPKLLIYSASFLYSGVPSRFSGSGSGTDFTLTISSLQPEDFATYYCQQSTGHPQTFGQGTKVEIK

Assays:
[1] = system: mouse breast cancer cell line 4T1 subcutaneously implanted model; assay: Influence on tumor immunity in model subcutaneously implanted with mouse breast cancer cell 4T1; assay type: in vivo, BALB/cAJcl mouse; conditions: Day 15
Method: Mouse breast cancer cell line 4T1 was subcutaneously implanted in a 6-week-old male BALB/cAJcl mouse. […] On the day following the final administration (Day 15), lymphocyte fractions were isolated from the tumor, spleen, and peripheral blood, and myeloid-derived suppressor cells (MDSCs) (CD11b^+/Gr−1^+ cells), CD4-positive T cells, and CD8-positive T cells were measured using a cell sorter.

urothelial cancer = conditions: cited from earlier work
[2] = 15 and 30 mg/kg/day oral, daily for 14 days, compared with control

Row | Molecule | CD4-positive T cells in the peripheral blood lymphocyte fractions [1, 2] | CD8-positive T cells in the peripheral blood lymphocyte fractions [1, 2] | CD8-positive T cells in the spleen lymphocyte fractions [1, 2] | MDSCs in the peripheral blood lymphocyte fractions [1, 2] | MDSCs (CD11b+/Gr-1+ cells) in the spleen lymphocyte fractions ([1]; any dose (15 or 30 mg/kg/day oral, daily for 14 days), compared with non-drug administration control, Student's t-test P<0.01) | response in patients without FGFR genetic aberration (urothelial cancer; combined use with pembrolizumab) | sensitivity state of the cancer to immune checkpoint inhibitors (urothelial cancer; urothelial cancer patients, vofatamab administration)
1 | C=CC(=O)N1CC[C@H](n2nc(C#Cc3cc(OC)cc(OC)c3)c3c(N)ncnc32)C1 [compound 1, (S)-1-(3-(4-amino-3-((3,5-dimethoxyphenyl)ethynyl)-1H-pyrazolo[3,4-d]pyrimidin-1-yl)pyrrolidin-1-yl)prop-2-en-1-one] | tended to increase in a dose-dependent manner | tended to increase in a dose-dependent manner | tended to increase in a dose-dependent manner | tended to decrease in a dose-dependent manner | significant reduction |  | 
2 | B1 |  |  |  |  |  | response by combined use with pembrolizumab is observed | change from a “cold” state (low sensitivity to immune checkpoint inhibitors) to a “hot” state (high sensitivity to immune checkpoint inhibitors)
